Laboratory results published in US12240857B2 (priority 2017, dated 2025).
Where two headings read alike, the source gives them in different places.

Key:
[1] = in vitro; details: African green monkey, CC50
[2] = system: BDBV mucin-domain-deleted glycoprotein pseudotyped VSV; assay: microbe, parasite or virus in culture; type: cell-based, Bundibugyo ebolavirus; details: Vesicular stomatitis virus, Vero, read-out: EC50 BDBV
[3] = system: EBOV mucin-domain-deleted glycoprotein pseudotyped VSV; assay: microbe, parasite or virus in culture; type: cell-based, Zaire ebolavirus; details: Zaire ebolavirus, Vero, read-out: EC50 EBOV

SMILES | CC50 [1] [nM] | EC50 [2] [nM] | EC50 [3] [nM] | EC50 ([2]; 24 h) [nM] | EC50 ([3]; 24 h) [nM]
CC12CC3CC(C(=O)Nc4ccc(CN)cc4)(C1)CC(c1ccccc1)(C3)C2 (stereo not drawn) [Example A103] | 7900 | 280 | 70 |  | 
O=C(N1CCN(Cc2ccccc2)CC1)C12CC3CC(C1)CC(c1ccccc1)(C3)C2 [Example A29] | 5800 | 270 | 340 |  | 
CC12CC3CC(C(=O)NCCN4CCOCC4)(C1)CC(c1ccccc1)(C3)C2 (stereo not drawn) [Example A48] | 54900 | 2000 | 1040 |  | 
c1ccc(C23CC4CC(CC(CNc5ccc(CN6CCCCC6)cn5)(C4)C2)C3)cc1 [Example C15, N-[(3-phenyladamantan-1-yl)methyl]-5-(piperidin-1-ylmethyl)pyridin-2-amine] | 3900 | 980 | > 1000 |  | 
CC12CC3CC(C(=O)Nc4ccnc(N)c4)(C1)CC(c1ccccc1)(C3)C2 (stereo not drawn) [Example A203, N-(2-aminopyridin-4-yl)-3-methyl-5-phenyladamantane-1-carboxamide] | 3900 | 1020 | 910 |  | 
N[C@H]1CC[C@H](NC(=O)C2C3CC4CC2CC(c2ccccc2)(C4)C3)CC1 (stereo partly drawn) [Example A84] | 9000 | 110 | 146 |  | 
O=C(NC1CCNCC1)C12CC3CC(C1)CC(c1ccc(Cl)cc1)(C3)C2 [Example A69] | 22400 | 240 | 220 |  | 
NCCOc1ccc(C23CC4CC(CC(C4)C2)C3)cc1 [Example D34, 1-[4-(2-aminoethoxy)phenyl] adamantane] | 3700 |  |  | 1160 | 430
O=C(NC1CCNCC1)c1ccc(NCC23CC4CC(C2)CC(c2ccccc2)(C4)C3)nc1 [Example C14, 6-{[(3-phenyladamantan-1-yl)methyl]amino}-N-(piperidin-4-yl)pyridine-3-carboxamide] | 3900 | 1000 | > 1000 |  | 
O=C(CC12CC3CC(C1)CC(c1ccccc1)(C3)C2)N1CC2CC1CN2Cc1ccccc1 (stereo not drawn) [Example A33] | 2200 | 300 | 320 |  | 
O=C(NC1CCNCC1)C12CC3CC(C1)CC(c1ccc(F)cc1)(C3)C2 [Example A75] | 17700 | 300 | 300 |  | 
CC1CCCCN1CC(O)COCCC12CC3CC(CC(C3)C1)C2 (stereo not drawn) [Example D11, 1-[2-(adamantan-1-yl)ethoxy]-3-(2-methylpiperidin-1-yl)propan-2-ol] | 7500 |  |  | 190 | 440
CC1CCN(C[C@@H](O)COCC23CC4CC(C2)CC(c2ccccc2)(C4)C3)CC1 [Example C11, (2R)-1-(4-methylpiperidin-1-yl)-3-[(3-phenyladamantan-1-yl)methoxy]propan-2-ol] | 3600 | 110 | 180 |  | 
O=C(CNC(=O)C12CC3CC(C1)CC(c1ccccc1)(C3)C2)N1CC2CC1CN2Cc1ccccc1 (stereo not drawn) [Example A8] | > 10000 | 220 | 190 |  | 
CC(C)C12CC3CC(C(=O)N[C@H]4CC[C@H](N)CC4)(CC(c4ccccc4)(C3)C1)C2 (stereo partly drawn) [Example A105] | 35000 | 1050 | 140 |  | 
CN1CC(NC(=O)CC23CC4CC(C2)CC(c2ccccc2)(C4)C3)C1 [Example A39] | 19100 | 210 | 510 |  | 
CC12CC3CC(C(=O)NC4C[C@H]5CC[C@H](C4)N5)(C1)CC(c1ccccc1)(C3)C2 (stereo partly drawn) [Example A92] | 10800 | 700 | 190 |  | 
O=C(N1CCC2(CCN(Cc3ccccc3)C2)C1)C12CC3CC(C1)CC(c1ccccc1)(C3)C2 (stereo not drawn) [Example A1, 2-benzyl-7-[(3-phenyladamantan-1-yl)carbonyl]-2,7-diazaspiro[4.4]nonane] | 5800 | 250 | 220 |  | 
COC(=O)c1ccc(COc2ccccc2CN2CCN(C(=O)CNC(=O)CC34CC5CC(C3)CC(c3ccccc3)(C5)C4)CC2)cc1 [Example A4] | > 3000 | 1240 | 190 |  | 
CN1CC(NC(=O)C23CC4CC(C)(C2)CC(c2ccccc2)(C4)C3)C1 (stereo not drawn) [Example A42] | 13900 | 190 | 121 |  | 
CC12CC3CC(C(=O)NCCN)(C1)CC(c1ccccc1)(C3)C2 (stereo not drawn) [Example A79] | 4200 | 290 | 260 |  | 
CC(NC(=O)Cn1ccc(C(F)(F)F)n1)C12CC3CC(CC(C3)C1)C2 (stereo not drawn) [Example D44, N[1-(adamantan-1-yl)ethyl]-2-[3-(trifluoromethyl)-1H-pyrazol-1-yl] acetamide] | > 10000 |  |  | 2700 | 5800
O=S(=O)(NC1CCNCC1)C12CC3CC(CC(C3)C1)C2 [Example A205, N-(piperidin-4-yl)adamantane-1-sulfonamide] | 37000 | > 1000 | > 1000 |  | 
CCC12CC3CC(C1)CC(c1ccc(OC[C@@H](O)CN4CCC(C)CC4)cc1)(C3)C2 [Example C19, (S)-1-(4-(−3-ethyladamantan-1-yl)phenoxy)-3-(4-methylpiperidin-1-yl)propan-2-ol] | > 100000 | 200 | 110 |  | 

SMILES | CC50 [1] [nM] | EC50 [2] [nM] | EC50 [3] [nM] | EC50 ([2]; 24 h) [nM] | EC50 ([3]; 24 h) [nM]
CC1CCN(CC(O)COCCC23CC4CC(CC(C4)C2)C3)CC1 (stereo not drawn) [Example D10, 1-[2-(adamantan-1-yl)ethoxy]-3-(4-methylpiperidin-1-yl) propan-2-ol] | 15500 |  |  | 140 | 320
CC12CC3CC(C(=O)N[C@H]4CC[C@H](CN)CC4)(C1)CC(c1ccccc1)(C3)C2 (stereo partly drawn) [Example A96] | 11600 | 80 | 30 |  | 
O=C(NCCC12CC3CC(CC(C3)C1)C2)c1ccc(CN2CCOCC2)cc1 [Example D41, N-[2-(adamantan-1-yl)ethyl]-4-(morpholin-4-ylmethyl)benzamide] | > 3000 |  |  | 9700 | 2300
O=C(CC12CC3CC(CC(C3)C1)C2)N[C@@H]1CCN(Cc2ccccc2)C1 [Example A52] | > 10000 | 4000 | 4900 |  | 
CN(C)C1CCCN(C(=O)NCC23CC4CC(CC(C4)C2)C3)C1 (stereo not drawn) [Example D46, N-(adamantan-1-ylmethyl)-3-(dimethylamino)piperidine-1-carboxamide] | > 10000 |  |  | 4300 | 6700
O=C(CC12CC3CC(CC(C3)C1)C2)NCC(=O)N[C@@H]1CCN(Cc2ccccc2)C1 [Example A56] | > 10000 | 10000 | 3100 |  | 
O=C(N[C@@H]1CCN(Cc2ccccc2)C1)C12CC3CC(C1)CC(c1ccccc1)(C3)C2 [Example A19] | 3900 | 440 | 290 |  | 
CC1CCN(C[C@@H](O)COCCC23CC4CC(C2)CC(c2ccccc2)(C4)C3)CC1 [Example C13, (2R)-1-(4-methylpiperidin-1-yl)-3-[2-(3-phenyladamantan-1-yl)ethoxy]propan-2-ol] | 3600 | 110 | 170 |  | 
O=C(N1CC2CCNC2C1)C12CC3CC(C1)CC(c1ccccc1)(C3)C2 (stereo not drawn) [Example A62] | 30000 | 110 | 160 |  | 
O=C(NC1CN(Cc2ccccc2)C1)C12CC3CC(C1)CC(c1ccccc1)(C3)C2 [Example A36] | 4300 | 300 | 510 |  | 
CN1CC[C@@H](NC(=O)C23CC4CC(C2)CC(c2ccccc2)(C4)C3)C1 [Example A37] | > 10000 | 240 | 230 |  | 
COc1ccc(CNCCC23CC4CC(CC(C4)C2)C3)cc1 [Example D4, [2-(adamantan-1-yl)ethyl][(4-methoxyphenyl)methyl]amine] | > 10000 |  |  | 2720 | 2190
O=C(CC12CC3CC(C1)CC(c1ccccc1)(C3)C2)N[C@@H]1CCN(Cc2ccccc2)C1 [Example A24] | 7200 | 290 | 290 |  | 
CN1CCC[C@@H](NC(=O)C23CC4CC(C2)CC(c2ccccc2)(C4)C3)C1 [Example A38] | > 10000 | 190 | 250 |  | 
C[C@H]1CNCCN1C(=O)C12CC3CC(C)(C1)CC(c1ccccc1)(C3)C2 (stereo partly drawn) [Example A83] | 12900 | 180 | 100 |  | 
O=C(NC12CC3CC(C1)CC(c1ccccc1)(C3)C2)C1CCNCC1 [Example E3, N-(3-phenyladamantan-1-yl)piperidine-4-carboxamide] | 36300 | 270 | > 1000 |  | 
O=C(C1C2CC3CC(C2)CC1C3)N1CCN(Cc2ccccc2)CC1 (stereo not drawn) [Example A31] | > 10000 | > 10000 | > 10000 |  | 
N[C@H]1CC[C@@H](NC(=O)CC2(c3ccccc3)C3CC4CC(C3)CC2C4)CC1 (stereo partly drawn) [Example A98] | 11300 | 580 | 1160 |  | 
NCc1ccc(NCC23CC4CC(C2)CC(c2ccccc2)(C4)C3)nc1 [Example C16, 5-(aminomethyl)-N-[(3-phenyladamantan-1-yl)methyl]pyridin-2-amine] | 8000 | 750 | 980 |  | 
CN(C(=O)C12CC3CC(C)(C1)CC(c1ccccc1)(C3)C2)C1CCNCC1 (stereo not drawn) [Example A104] | 66000 | 220 | 60 |  | 
CC12CC3CC(C(=O)NC4CCNCC4(C)C)(C1)CC(c1ccccc1)(C3)C2 (stereo not drawn) [Example A111] | 10700 | 150 | 18 |  | 
COc1ccc(C23CC4CC(CC(C(=O)NC5CCNCC5)(C4)C2)C3)cc1 [Example A67] | > 10000 | 410 | 390 |  | 
OC(COCCC12CC3CC(CC(C3)C1)C2)CN1CCOCC1 (stereo not drawn) [Example D16, 1-[2-(adamantan-1-yl)ethoxy]-3-(morpholin-4-yl)propan-2-ol] | > 10000 |  |  | 3200 | 3800
